Assay results as given in PubChem BioAssay AID1996.
Values after ≈ are worked out from the molar mass of the structure shown.

settings: buffer; pH 7.4; 200.0 µM

Compound | solubility kinetic
O=C(COC(=O)/C=C/c1cccc(F)c1)Nc1cccc(S(=O)(=O)NC2=NCCCCC2)c1 | 18.3 µg/mL (≈ 38.6 µM)
COc1cc(/C=C(\C#N)C(N)=O)ccc1OCc1c(C)no[n+]1[O-] | 14.6 µg/mL (≈ 44.2 µM)
CC(NC(=O)c1cc2ccccc2oc1=O)c1ccccc1 (stereo not given) | 3.8 µg/mL (≈ 13 µM)
Cc1c(N=Cc2c(O)n(C)c(=O)[nH]c2=O)c(=O)n(-c2ccccc2)n1C | > 53.3 µg/mL
O=C(NCC1CCCO1)c1ccccc1NS(=O)(=O)c1cccc([N+](=O)[O-])c1 (stereo not given) | > 60.8 µg/mL
Cc1ccc(OCC(=O)NC(C)c2ccccc2)cc1C (stereo not given) | > 42.5 µg/mL
O=C(Nc1ccccc1)OCc1cnc(Cl)s1 | 36.7 µg/mL (≈ 137 µM)
CC(C)CN(C(=O)C1CCCC1)C1CCS(=O)(=O)C1 (stereo not given) | > 43.1 µg/mL
Cc1nc2ccc(NC(=O)[C@H](C)N3C(=O)C4CC=CCC4C3=O)cc2s1 (stereo not given in full) | > 55.4 µg/mL
COc1cc(C2NC(=O)NC(C)=C2[N+](=O)[O-])cc(OC)c1OC (stereo not given) | 47.3 µg/mL (≈ 146 µM)
COc1ccc(C2(C)NC(=O)N(CC(=O)NC3(C#N)CCCCC3)C2=O)cc1 (stereo not given) | > 57.7 µg/mL
Cc1cc(C)c2nc(N(CCN(C)C)C(=O)c3ccc4ccccc4c3)sc2c1.Cl | 2.3 µg/mL
Cc1ccc(Nc2nc(N)nc(CCl)n2)c(C)c1 | > 39.6 µg/mL
Cc1ccc(OCCc2csc(N)n2)cc1 | 34.8 µg/mL (≈ 149 µM)
O=c1ccc2cc3c([nH]c4ccc(Br)cc43)oc-2c1O | > 49.5 µg/mL
COc1ccc(CCNC(=O)Cc2ccsc2)cc1 | > 41.3 µg/mL
COc1cc(CN2CCCN(C)CC2)cc([N+](=O)[O-])c1O | 33.9 µg/mL (≈ 115 µM)
O=C(NCc1c[nH]c2ccccc12)c1ccccc1 | > 37.5 µg/mL
COc1ccc(-c2nc(-c3ccncc3)no2)c(OC)c1 | 6 µg/mL (≈ 21.2 µM)
CC1CCN(C(=O)CCN2C(=O)C3C4C=CC(C4)C3C2=O)CC1 (stereo not given) | > 47.5 µg/mL
CCCc1cc(=O)[nH]c(SCC(=O)Nc2sc3c(c2C(N)=O)CCCC3)n1 | 9 µg/mL (≈ 22.1 µM)
COc1ccc(CC(=O)NCc2ccccc2)cc1 | 22.6 µg/mL (≈ 88.5 µM)
CCC(C)N1CCN(S(=O)(=O)c2ccc(NC(C)=O)cc2)CC1 (stereo not given) | 46.7 µg/mL (≈ 138 µM)
CC(C)(C)NC(=O)NCc1ccco1 | > 29.4 µg/mL

Compound | solubility kinetic
CCOC(=O)c1cc2c(ccn2C)n1CC(=O)N(C)C | > 41.6 µg/mL
COc1ccccc1/C=C/C(=O)OC(C)CN1CCCCC1.Cl (stereo not given) | > 51 µg/mL
COc1ccc(S(=O)(=O)NC2CCCC2)c(OC)c1 | > 42.8 µg/mL
CCN(CC)CCC(C)OC(=O)c1ccc(O)cc1O.Cl (stereo not given) | > 47.7 µg/mL
CCOC(=O)C(=O)Nc1ccccc1C(=O)OC | > 37.7 µg/mL
CCOC(=O)C1=C(C)NC(=O)NC1c1cccs1 (stereo not given) | > 39.9 µg/mL
C=CCNc1nc(N)c([N+](=O)[O-])c(Nc2ccccc2OC)n1 | 0.4 µg/mL (≈ 1.26 µM)
CCNC(=S)N1CCC(C(N)=O)CC1 | > 32.3 µg/mL
COc1cccc(C(=O)NC(C)c2cccc3ccccc23)c1OC (stereo not given) | 19 µg/mL (≈ 56.6 µM)
CCN(CC)CCN(C(=O)c1cc2ccccc2cc1OC)c1nc2ccc(OC)cc2s1.Cl | 3.7 µg/mL
O=c1c2ccccc2nc(/C=C/c2cc(Br)ccc2O)n1CCO | 6.1 µg/mL (≈ 15.8 µM)
COc1cc2c(cc1OC)/C(=C/C(=O)c1ccc(F)cc1)NCC2 | 25.7 µg/mL (≈ 78.5 µM)
O=C(Nc1ccc(F)cc1F)Nc1csc2ccccc12 | 0.6 µg/mL (≈ 1.97 µM)
CCCC1C(=O)Nc2ccccc2N1C(=O)c1cccc(C)c1 (stereo not given) | > 46.3 µg/mL
O=C(c1cc(S(=O)(=O)N2CCOCC2)ccc1F)N1CCc2ccccc21 | > 58.6 µg/mL
CCCC(C(=O)Nc1ccncc1)c1ccccc1 (stereo not given) | > 38.1 µg/mL
CN1CCN(CCCNC(=O)CN2C(=O)COc3ccccc32)CC1 | 37.6 µg/mL (≈ 109 µM)
Nc1nc(NCCCN2CCOCC2)nc(Nc2cccc(F)c2)c1[N+](=O)[O-] | 6.3 µg/mL (≈ 16.1 µM)
O=C1CC(C(=O)N2CCCc3ccccc32)CN1c1ccc(Cl)cc1 (stereo not given) | 46.2 µg/mL (≈ 130 µM)
O=C(COC(=O)/C=C/c1cccc(Cl)c1)Nc1c(F)cccc1F | 6.3 µg/mL (≈ 17.9 µM)
CCNc1nc(NC(C)(C)C)nc(SC)n1 | 35.9 µg/mL (≈ 149 µM)
CC1CCCCC12NC(=O)N(CC(=O)OCc1ccccc1F)C2=O (stereo not given) | 17.2 µg/mL (≈ 49.4 µM)
Cc1nn(CCCC(=O)Nc2ccccn2)c(C)c1[N+](=O)[O-] | > 45.5 µg/mL
Cc1ccc(N2C(=O)C3CCCN3C2=S)cc1Cl (stereo not given) | > 42.1 µg/mL

Compound | solubility kinetic
CC1(CCC(=O)N2CCCC(Nc3ccc(F)cc3)C2)CC1 (stereo not given) | > 45.7 µg/mL
O=C(OCC(=O)N1CCCCCC1)c1ccc([N+](=O)[O-])cc1Cl | 50 µg/mL (≈ 147 µM)
CCOc1ncccc1C(=O)N(CCC(C)C)c1c(N)n(Cc2ccccc2)c(=O)[nH]c1=O | 3.3 µg/mL (≈ 7.31 µM)
Cc1ccc2[nH]c(C(=O)Nc3ccc(F)cc3)cc2c1 | < 0.3 µg/mL
NC(=O)C1CCN(C(=O)c2cccc3ccccc23)CC1 | > 42.4 µg/mL
COCCNC(=O)Nc1ccc(F)cc1 | > 31.8 µg/mL
CCN1C(=O)N(c2ccc(C(C)=O)cc2)S(=O)(=O)c2ccccc21 | 47.6 µg/mL (≈ 138 µM)
O=c1[nH]cc(S(=O)(=O)N2CCOCC2)c(=O)[nH]1 | > 39.2 µg/mL
CC(C)CCn1cnc2c1c(=O)[nH]c(=O)n2Cc1ccccc1 | 29.8 µg/mL (≈ 95.4 µM)
CC(C)(C)CC(=O)Nc1cc2c3c(c1)CCN3C(=O)CC2 | > 43 µg/mL
Oc1ccc(C(=S)N2CCCC2)cc1 | > 31.1 µg/mL
Cc1ccc(Cl)cc1N1CCN(C(=S)NCc2ccco2)CC1 | 1 µg/mL (≈ 2.86 µM)
COc1ccc(CCN(C)C2CC(=O)N(c3ccccc3)C2=O)cc1OC (stereo not given) | > 55.3 µg/mL
CN(CCC#N)C(=O)CC1(Cc2ccccc2)CCOC(C)(C)C1 (stereo not given) | > 49.3 µg/mL
COc1ccc(OC)c2nc(-c3cccnc3)ccc12 | > 39.9 µg/mL
C[N+](C)(C)CC#CCN1CCCC1=O.[I-] | > 48.3 µg/mL
Cc1ccc(NS(=O)(=O)c2ccc3c(c2)n(C)c(=O)n3C)cc1C | 1.2 µg/mL (≈ 3.47 µM)
COc1ccc(C)cc1NC(=O)Nc1ccccc1SC | 1.3 µg/mL (≈ 4.3 µM)
N#CCCN(Cc1ccccc1)C(=S)Nc1ccc(F)cc1 | 28.8 µg/mL (≈ 91.9 µM)
NC1=Nc2cccc3cccc1c23 | 23.2 µg/mL (≈ 138 µM)
Cc1sc2ncnc(N(C)C3CCCCC3)c2c1C | 1.1 µg/mL (≈ 3.99 µM)
CCOP(=O)(c1ccc(N(C)C)cc1)C(O)c1ccc(C)cc1 (stereo not given) | 46 µg/mL (≈ 138 µM)
Cc1ccc(-c2nc(-c3cccnc3)sc2CC(=O)O)cc1 | 42.4 µg/mL (≈ 137 µM)
CN(C1CCCCC1)S(=O)(=O)c1ccc(-c2ccccn2)s1 | 0.5 µg/mL (≈ 1.49 µM)

Compound | solubility kinetic
c1ccc2c(SCc3cn4ccccc4n3)nncc2c1 | > 43.9 µg/mL
COc1ccc(O)c(/C=N/c2sc(C)c(C)c2C#N)c1 | 1 µg/mL (≈ 3.49 µM)
Cc1c(C)n(Cc2ccccc2)c2ncnc(NCCCN(C)C)c12 | > 50.6 µg/mL
COc1cccc(C(=O)NC(C)CCc2ccccc2)c1 (stereo not given) | 36 µg/mL (≈ 127 µM)
CN=C(Nc1cccc(S(=O)(=O)N2CCOCC2)c1)c1ccccc1 | 17.2 µg/mL (≈ 47.9 µM)
O=C(Nc1nccs1)C1CC=CCC1 (stereo not given) | 22.7 µg/mL (≈ 109 µM)
CCCOC(=O)C1=C(C)N(C)C(=O)NC1c1cc2c(cc1[N+](=O)[O-])OCO2 (stereo not given) | 49.4 µg/mL (≈ 131 µM)
COc1ccccc1CNc1ccc(N2CCCCC2)cc1 | 30 µg/mL (≈ 101 µM)
O=C(NC(=S)Nc1ccccc1CO)C1CCCCC1 | > 43.9 µg/mL
Cc1cc(NCCCOC(C)C)n2c(nc3ccccc32)c1C#N | 1.4 µg/mL (≈ 4.34 µM)
O=C(NCCNCc1cccs1)c1ccccc1F | 37.6 µg/mL (≈ 135 µM)
CCCc1cc(=O)[nH]c(SCC(=O)NCc2ccc3c(c2)OCO3)n1 | > 54.2 µg/mL
COc1ccc(CCNC(=O)Nc2ccc3c(c2)OCO3)cc1OC | 5.3 µg/mL (≈ 15.4 µM)
O=C(NC(Cc1ccccc1)C(=O)O)c1cccnc1Cl (stereo not given) | 35 µg/mL (≈ 115 µM)
COC(=O)c1sccc1NC(=O)CSCCc1ccncc1 | 49.6 µg/mL (≈ 147 µM)
O=C(Nc1cccs1)N1CCN(c2ncccn2)CC1 | > 43.4 µg/mL
COc1cc(/C=C/c2noc(-c3ccccc3O)n2)ccc1OC(C)=O | < 0.4 µg/mL
CC(=O)Nc1ccc(S(=O)(=O)Nc2ccc(C)c([N+](=O)[O-])c2)cc1 | > 52.4 µg/mL
CC1=C(C(=O)OCc2ccccc2)C(c2cccc(F)c2)NC(=O)N1 (stereo not given) | 2.5 µg/mL (≈ 7.35 µM)
O=C(/C=C/c1ccccc1)NCc1ccco1 | > 34.1 µg/mL
CC(=O)N/C(=C\c1ccccc1)C(=O)OCc1ccc(F)cc1 | 43.4 µg/mL (≈ 139 µM)
CN1CCN(c2ncnc3nc[nH]c23)CC1 | 28.8 µg/mL (≈ 132 µM)
CN1C(=O)c2cccc3c(S(=O)(=O)N4CCCC4C(=O)O)ccc1c23 (stereo not given) | > 54.1 µg/mL
CN(C)C(=O)COc1ncnc2sc(-c3ccccc3)cc12 | 13.9 µg/mL (≈ 44.4 µM)

Compound | solubility kinetic
O=[N+]([O-])c1ccc(Cl)cc1N1CCCCC1 | < 0.3 µg/mL
Cc1ccc(/C(O)=C/c2nc3ccccc3oc2=O)cc1 | 22.5 µg/mL (≈ 80.6 µM)
COC(=O)c1ccc(NC(=O)NC(=O)Oc2ccccc2)cc1 | 42.5 µg/mL (≈ 135 µM)
Nc1ncnc2c1ncn2[C@@H]1O[C@H](CO)[C@@H](O)[C@H]1O | > 40.1 µg/mL
Cc1ccc(/C=C/C(=O)NN2CCN(C)CC2)cc1 | > 38.9 µg/mL
Cc1cc(SCC(=O)c2ccccc2)nc(=O)[nH]1 | 16.7 µg/mL (≈ 64.2 µM)
N#Cc1cnc(NOCc2ccc(Cl)cc2)nc1 | 7.4 µg/mL (≈ 28.4 µM)
NC(=O)N1c2ccccc2C=Cc2ccccc21 | > 35.4 µg/mL
COc1ccc(S(=O)(=O)NC2CCCC2)cc1Cl | > 43.5 µg/mL
Cc1ccccc1NC(=O)CC(=O)c1ccccc1 | > 38 µg/mL
CC(C)=NN1C(c2nonc2N)=NOC1(C)C | > 35.7 µg/mL
CCOc1ccc(N(C)Cc2cc(=O)oc3ccc(OCC)cc23)cc1 | 2.3 µg/mL (≈ 6.51 µM)
CCN(CC)C(=O)c1ccc(CS(=O)(=O)Cc2ccccc2)cc1 | > 51.8 µg/mL
Cc1nc(NC(=O)c2ccco2)sc1C(=O)O | > 37.8 µg/mL
COc1ccc(NC(=O)NC2(C)CCS(=O)(=O)C2)cc1 (stereo not given) | > 44.8 µg/mL
CN(CC(=O)Nc1ccc2c(c1)OCO2)CC(=O)Nc1ccc(F)c(F)c1F | > 59.3 µg/mL
Cl.NC(=NCCc1ccccc1)c1cccc([N+](=O)[O-])c1 | > 45.9 µg/mL
Cc1ccc(O)c(CO)n1 | > 20.9 µg/mL
Cc1ccc(SCCSc2nc(N)cc(=O)[nH]2)cc1 | 6.7 µg/mL (≈ 22.8 µM)
COc1ccccc1/C=C/C(=O)NCCc1ccccn1 | 41.9 µg/mL (≈ 148 µM)
COCCCNc1nc2nonc2nc1N1CCN(C2CCCC2)CC1 | 45.9 µg/mL (≈ 127 µM)
COc1ccccc1/C=C/C(=O)NC(=S)N1CCN(C)CC1 | > 47.9 µg/mL
COc1ccc(CCNC(=O)C(C)OC(=O)c2cccs2)cc1OC (stereo not given) | 49 µg/mL (≈ 135 µM)
CCN(CC)C(=O)CSc1ncnc2sc(C)c(C)c12 | 43.4 µg/mL (≈ 140 µM)
